Source: ChEMBL document CHEMBL1136514, “Synthesis and evaluation of delta-lactams (piperazones) as elastase inhibitors” (Bioorg Med Chem Lett, 2003)

What was measured:
[1] = biological target: T1, Neutrophil elastase (Homo sapiens, UniProt P08246); experiment: Inhibitory concentration against human neutrophil elastase (HNE); No inhibition
T1 sequence (P08246 whole entry): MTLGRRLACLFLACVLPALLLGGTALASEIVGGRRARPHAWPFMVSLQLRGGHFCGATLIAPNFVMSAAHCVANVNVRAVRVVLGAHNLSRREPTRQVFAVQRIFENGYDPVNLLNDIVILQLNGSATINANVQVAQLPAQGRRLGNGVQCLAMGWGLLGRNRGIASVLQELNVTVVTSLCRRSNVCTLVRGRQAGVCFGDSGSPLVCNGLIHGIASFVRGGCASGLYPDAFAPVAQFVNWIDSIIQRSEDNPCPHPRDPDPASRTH

[2] = biological target: T1, Neutrophil elastase; experiment: Inhibitory concentration against human neutrophil elastase (HNE)
[3] = biological target: T2, Chymotrypsin-like elastase family member 2A (Sus scrofa, UniProt P08419); experiment: Inhibitory concentration against porcine pancreatic elastase (PPE); No inhibition
T2 sequence (P08419 whole entry): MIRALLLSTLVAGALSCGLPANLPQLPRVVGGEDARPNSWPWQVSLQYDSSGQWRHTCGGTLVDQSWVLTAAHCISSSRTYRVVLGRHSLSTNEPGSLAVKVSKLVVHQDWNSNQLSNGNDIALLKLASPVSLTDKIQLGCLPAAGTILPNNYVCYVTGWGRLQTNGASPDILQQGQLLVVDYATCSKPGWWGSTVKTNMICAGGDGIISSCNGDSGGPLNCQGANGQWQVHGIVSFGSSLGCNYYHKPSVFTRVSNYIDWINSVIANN

| IC50 [1] | IC50 [2] | IC50 [3] | SMILES |
| --- | --- | --- | --- |
| Not Active |  |  | CCC(C)[C@H]1C(=O)N(Cc2ccccc2)CCN1S(=O)(=O)c1ccc(C)cc1 (stereo partly specified) |
|  | 28 µM |  | Cc1ccc(S(=O)(=O)N2CCN(Cc3ccccc3)C(=O)[C@@H]2CC(C)C)cc1 |
| Not Active |  | Not Active | CCC(C)[C@H]1C(=O)NCCN1C(=O)OC(C)(C)C (stereo partly specified) |
| Not Active |  | Not Active | CCC(C)[C@@H]1NCCNC1=O (stereo partly specified) |
| Not Active |  | Not Active | CCC(C)[C@@H]1NCCN(Cc2ccccc2)C1=O (stereo partly specified) |
| Not Active |  | Not Active | CC(C)C[C@H]1C(=O)NCCN1C(=O)OC(C)(C)C |
| Not Active |  | Not Active | CC(C)C[C@@H]1NCCN(Cc2ccccc2)C1=O |
| Not Active |  | Not Active | CC(C)C[C@@H]1NCCNC1=O |
| Not Active |  | Not Active | CCC(C)[C@H]1C(=O)N(S(=O)(=O)c2ccc(C)cc2)CCN1S(=O)(=O)c1ccc(C)cc1 (stereo partly specified) |
